Patent publication US8846601B2, “Melanocortin receptor-specific peptides” (Palatin Technologies, Inc., priority 2009, dated 2014)
Values belong to the compound of their own block, whether it stands above or below them. Peptide text beside a SMILES is read from it.

Assays:
[1] = biological target: T1, hMC4-R (Homo sapiens (Human), UniProt P32245); experiment: Assay for agonist activity: cAMP accumulation in HEK-293 cells that express hMC4-R; settings: for functional status at MC4-R (agonist / partial agonist): agonist = intrinsic activity 70% or higher, partial agonist 10-70%
Protocol: By “intrinsic activity” is meant the maximal functional activity achievable by a compound in a specified melanocortin receptor expressing cell system, such as the maximal stimulation of adenylyl cyclase.
Accumulation of intracellular cAMP was examined as a measure of the ability of the peptides of the present invention to elicit a functional response in HEK-293 cells that express MC4-R. Confluent HEK-293 cells that express recombinant hMC4-R were detached from culture plates by incubation in enzyme-free cell dissociation buffer. Dispersed cells were suspended in Earle's Balanced Salt Solution containing 10 mM HEPES (pH 7.5), 1 mM MgCl2, 1 mM glutamine, 0.5% albumin and 0.3 mM 3-isobutyl-1-methyl-xanthine (IBMX), a phosphodiesterase inhibitor. […] Cells were exposed for 15 minutes at 37° C. to peptides of the present invention dissolved in DMSO (final DMSO concentration of 1%) at a concentration range of 0.05-5000 nM in a total assay volume of 200 μL. […] Data analysis was performed by nonlinear regression analysis with Graph-Pad Prism® software. The maximum efficacies of the test peptides of the present invention were compared to that achieved by the reference melanocortin agonist NDP-αMSH.

[2] = biological target: T1, hMC4-R; experiment: Competitive binding assay using Eu-NDP-α-MSH (TRF), hMC4-R membranes; settings: averaged; Eu-NDP-α-MSH (values marked *); read-out: MC4-R Ki
Protocol: Alternatively, a competitive inhibition binding assay was performed employing Eu-NDP-α-MSH (PerkinElmer Life Sciences catalog No. AD0225) with determination by time-resolved fluorometry (TRF) of the lanthanide chelate. […] After incubation for 90 minutes at 37° C., the reaction was stopped by filtration over AcroWell 96-well filter plates (Pall Life Sciences). The filter plates were washed 4 times with 200 μL of ice-cold phosphate-buffered saline. DELFIA Enhancement solution (PerkinElmer Life Sciences) was added to each well. […] Each assay was conducted in duplicate and mean values were utilized. Ki values were determined by curve-fitting with Graph-Pad Prism® software using a one-site fixed-slope competition binding model.

[3] = biological target: T1, hMC4-R; experiment: Competitive inhibition binding assay using [I125]-NDP-α-MSH, hMC4-R membranes
How it was run: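 Membranes from HEK-293 cells expressing recombinant hMC1-R or hMC4-R incubated with 0.1 nM (MC1-R) or 0.2 nM (MC4-R) [I125]-NDP-α-MSH and increasing peptide concentrations in HEPES pH 7.5, 60 min at 37 °C; filtered, gamma counted.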

T1 sequence (P32245 whole entry): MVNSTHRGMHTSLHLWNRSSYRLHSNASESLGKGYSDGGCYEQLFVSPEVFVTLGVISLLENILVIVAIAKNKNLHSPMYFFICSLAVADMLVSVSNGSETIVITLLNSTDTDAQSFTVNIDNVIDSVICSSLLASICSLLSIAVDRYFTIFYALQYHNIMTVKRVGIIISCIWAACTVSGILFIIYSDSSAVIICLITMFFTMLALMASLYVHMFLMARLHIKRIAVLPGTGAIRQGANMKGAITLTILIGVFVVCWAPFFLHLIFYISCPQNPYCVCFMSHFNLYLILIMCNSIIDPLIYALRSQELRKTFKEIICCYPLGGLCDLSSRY

Structure (SMILES): CC(=O)N[C@@H](CCCNC(=N)N)C(=O)N[C@H]1CCNC(=O)CCC[C@@H](C(N)=O)NC(=O)[C@H](Cc2c[nH]c3ccccc23)NC(=O)[C@H](CCCNC(=N)N)NC(=O)[C@@H](Cc2ccccc2)NC(=O)[C@H](Cc2c[nH]cn2)NC1=O [compound 128, Ac-Arg-cyclo(Dab-His- D-Phe-Arg-Trp-hGlu)- NH2]
functional status at MC4-R (agonist / partial agonist) [1]: agonist

Structure (SMILES): CC(=O)N[C@@H](CCCNC(=N)N)C(=O)N[C@H]1CC(=O)NCCCC[C@@H](C(N)=O)NC(=O)[C@H](Cc2c[nH]c3ccccc23)NC(=O)[C@H](CCCCN)NC(=O)[C@@H](Cc2ccccc2)NC(=O)[C@H](Cc2c[nH]cn2)NC1=O [compound 6, Ac-Arg-cyclo(Asp-His- D-Phe-Lys-Trp-Lys)- NH2] (HELM PEPTIDE1{[ac].R.D.H.[dF].K.W.K.[am]}$PEPTIDE1,PEPTIDE1,3:R3-8:R3$$$V2.0)
Ki [2]: 533 nM

Structure (SMILES): CC[C@H](C)[C@@H]1NC(=O)[C@@H](NC(=O)[C@H](CCCNC(=N)N)NC(C)=O)CC(=O)NCCCC[C@@H](C(N)=O)NC(=O)[C@H](Cc2c[nH]c3ccccc23)NC(=O)[C@H](CCCNC(=N)N)NC(=O)[C@@H](Cc2ccccc2)NC1=O [compound 34, Ac-Arg-cyclo(Asp-Ile-D- Phe-Arg-Trp-Lys)-NH2] (HELM PEPTIDE1{[ac].R.D.I.[dF].R.W.K.[am]}$PEPTIDE1,PEPTIDE1,3:R3-8:R3$$$V2.0)
Ki [2]: 19 nM

Structure (SMILES): CC(=O)N[C@@H](CCCNC(=N)N)C(=O)N[C@H]1CC(=O)NCCCC[C@@H](C(N)=O)NC(=O)[C@H](Cc2c[nH]c3ccccc23)NC(=O)[C@H](CCCCN)NC(=O)[C@@H](Cc2ccccc2)NC(=O)[C@H](C)NC1=O [compound 8, Ac-Arg-cyclo(Asp-Ala- D-Phe-Lys-Trp-Lys)- NH2] (HELM PEPTIDE1{[ac].R.D.A.[dF].K.W.K.[am]}$PEPTIDE1,PEPTIDE1,3:R3-8:R3$$$V2.0)
Ki [2]: 3020 nM

Structure (SMILES): CC(=O)N[C@@H](CCCNC(=N)N)C(=O)N[C@H]1CCNC(=O)CCC[C@@H](C(N)=O)NC(=O)[C@H](Cc2c[nH]c3ccccc23)NC(=O)[C@H](CCCNC(=N)N)NC(=O)[C@@H](Cc2ccccc2)NC(=O)[C@H](CCN)NC1=O [compound 129, Ac-Arg-cyclo(Dab-Dab- D-Phe-Arg-Trp-hGlu)- NH2]
Ki [2]: 4 nM
EC50 [1]: 0.065 nM
functional status at MC4-R (agonist / partial agonist) [1]: agonist

Structure (SMILES): CCNC(=O)[C@@H]1CCCNC(=O)CC[C@H](NC(=O)[C@H](CCCNC(=N)N)NC(C)=O)C(=O)N[C@@H](Cc2c[nH]cn2)C(=O)N[C@H](Cc2ccccc2)C(=O)N[C@@H](CCCNC(=N)N)C(=O)N[C@@H](Cc2c[nH]c3ccccc23)C(=O)N1 [compound 109, Ac-Arg-cyclo(Glu-His- D-Phe-Arg-Trp-Orn)- NH-Et] (HELM PEPTIDE1{[ac].R.E.H.[dF].R.W.[Orn].[CCN[*:1]]}$PEPTIDE1,PEPTIDE1,3:R3-8:R3$$$V2.0)
Ki [2]: 6 nM

Structure (SMILES): CC(=O)N[C@H](CCCNC(=N)N)C(=O)N[C@H]1CCC(=O)NCCC[C@@H](C(=O)O)NC(=O)[C@H](Cc2c[nH]c3ccccc23)NC(=O)[C@H](CCCNC(=N)N)NC(=O)[C@@H](Cc2ccccc2)NC(=O)[C@H](Cc2c[nH]cn2)NC1=O [compound 85, Ac-D-Arg-cyclo(Glu- His-D-Phe-Arg-Trp- Orn)-OH] (HELM PEPTIDE1{[ac].[dR].E.H.[dF].R.W.[Orn]}$PEPTIDE1,PEPTIDE1,3:R3-8:R3$$$V2.0)
Ki [2]: 40 nM

Structure (SMILES): CC(=O)N[C@H](CCCNC(=N)N)C(=O)N[C@H]1CC(=O)NCCCC[C@@H](C(N)=O)NC(=O)[C@H](Cc2c[nH]c3ccccc23)NC(=O)[C@H](CCCNC(=N)N)NC(=O)[C@@H](Cc2ccccc2)NC(=O)[C@H](CCC(N)=O)NC1=O [compound 71, Ac-D-Arg-cyclo(Asp- Gln-D-Phe-Arg-Trp- Lys)-NH2]
Ki ([3]; averaged, [I125]-NDP-α-MSH (values not marked *), read-out: MC4-R Ki): 45 nM
Ki ([3]; read-out: hMC4-R (Ki)): 45 nM
EC50 [1]: 2 nM

Structure (SMILES): CC(=O)N[C@@H](CCCNC(=N)N)C(=O)N[C@H]1CC(=O)NCCCC[C@@H](C(N)=O)NC(=O)[C@H](Cc2c[nH]c3ccccc23)NC(=O)[C@H](CCCNC(=N)N)NC(=O)[C@@H](Cc2ccccc2)NC(=O)[C@H](CC(C)C)NC1=O [compound 12, Ac-Arg-cyclo(Asp-Leu- D-Phe-Arg-Trp-Lys)- NH2] (HELM PEPTIDE1{[ac].R.D.L.[dF].R.W.K.[am]}$PEPTIDE1,PEPTIDE1,3:R3-8:R3$$$V2.0)
Ki [2]: 33 nM

Structure (SMILES): CC(=O)N[C@@H](CCCNC(=N)N)C(=O)N[C@H]1CC(=O)NCCCC[C@@H](C(N)=O)NC(=O)[C@H](Cc2c[nH]c3ccccc23)NC(=O)[C@H](CCCNC(=N)N)NC(=O)[C@@](C)(Cc2ccccc2)NC(=O)[C@H](Cc2c[nH]cn2)NC1=O [compound 60, Ac-Arg-cyclo(Asp-His- D-(alpha-Me)Phe-Arg- Trp-Lys)-NH2]
Ki [2]: 47 nM

Continued by falling Ki [2], values first:

Ki [2]: 3 nM
Structure (SMILES): CC(=O)N[C@@H](CCCNC(=N)N)C(=O)N[C@H]1CC(=O)NCCCC[C@@H](C(N)=O)NC(=O)[C@H](Cc2c[nH]c3ccccc23)NC(=O)[C@H](CCCNC(=N)N)NC(=O)[C@@H](Cc2ccccc2)NC(=O)[C@@H]2C[C@@H](Cc3ccccc3)CN2C1=O [compound 18, Ac-Arg-cyclo(Asp- Pro(4R-Bzl)-D-Phe-Arg- Trp-Lys)-NH2]

Ki [2]: 2 nM
EC50 [1]: 0.06 nM
functional status at MC4-R (agonist / partial agonist) [1]: agonist
Structure (SMILES): CC(=O)N[C@@H](CCCNC(=N)N)C(=O)N[C@H]1CCCC(=O)NCC[C@@H](C(N)=O)NC(=O)[C@H](Cc2c[nH]c3ccccc23)NC(=O)[C@H](CCCNC(=N)N)NC(=O)[C@@H](Cc2ccccc2)NC(=O)[C@H](CCN)NC1=O [compound 127, Ac-Arg-cyclo(hGlu-Dab- D-Phe-Arg-Trp-Dab)- NH2]

Ki [2]: 1 nM
EC50 [1]: 0.047 nM
functional status at MC4-R (agonist / partial agonist) [1]: agonist
Structure (SMILES): CC(=O)N[C@@H](CCCNC(=N)N)C(=O)N[C@H]1CCCC(=O)NCC[C@@H](C(N)=O)NC(=O)[C@H](Cc2c[nH]c3ccccc23)NC(=O)[C@H](CCCNC(=N)N)NC(=O)[C@@H](Cc2ccccc2)NC(=O)[C@H](Cc2c[nH]cn2)NC1=O [compound 126, Ac-Arg-cyclo(hGlu-His- D-Phe-Arg-Trp-Dab)- NH2]

Ki [2]: 0.7 nM
Structure (SMILES): CC(=O)N[C@@H](CCCNC(=N)N)C(=O)N[C@H]1CC(=O)NCCCC[C@@H](C(N)=O)NC(=O)[C@H](Cc2c[nH]c3ccccc23)NC(=O)[C@H](CCCNC(=N)N)NC(=O)[C@@H](Cc2ccccc2)NC(=O)[C@@H]2C[C@@H](OCc3ccccc3)CN2C1=O [compound 15, Ac-Arg-cyclo(Asp- Hyp(Bzl)-D-Phe-Arg- Trp-Lys)-NH2]
